# Patent US7060477B2, “Epoxide hydrolases of aspergillus origin” (Centre National de la Recherche Scientifique, priority 1999, dated 2006)
# Read-outs that look alike come from different tables or passages of the source.
# B1: rat microsomal epoxide hydrolase (mEH): rat microsomal epoxide hydrolase, literature comparison enzyme (protein, UniProt P07687 1-455, looked up)
# Epoxide hydrolase 1: MWLELVLASLLGFVIYWFVSRDKEETLPLGDGWWGPGSKPSAKEDESIRPFKVETSDEEIKDLHQRIDRFRASPPLEGSRFHYGFNSNYMKKVVSYWRNEFDWRKQVEILNQYPHFKTKIEGLDIHFIHVKPPQLPSGRTPKPLLMVHGWPGSFYEFYKIIPLLTDPKSHGLSDEHVFEVICPSIPGYGYSEASSKKGLNSVATARIFYKLMTRLGFQKFYIQGGDWGSLICTNMAQMVPNHVKGLHLNMAFISRSFYTMTPLLGQRFGRFLGYTEKDIELLYPYKEKVFYSIMRESGYLHIQATKPDTVGCALNDSPVGLAAYILEKFSTWTKSEYRELEDGGLERKFSLDDLLVNIMIYWTTGTIVSSQRYYKENLGQGIMVHKHEGMKVFVPTGFSAFPSELLHAPEKWVKVKYPKLISYSYMERGGHFAAFEEPKLLAQDIRKFVSLAELQ
# B2: EH from Aspergillus niger: fungal epoxide hydrolase represented by SEQ ID NO: 2, purified from Aspergillus niger LCP521 or recombinant in E. coli (protein)
# chain: MSAPFAKFPSSASISPNPFTVSIPDEQLDDLKTLVRLSKIAPPTYESLQADGRFGITSEWLTTMREKWLSEFDWRPFEARLNSFPQFTTEIEGLTIHFAALFSEREDAVPIALLHGWPGSFVEFYPILQLFREEYTPETLPFHLVVPSLPGYTFSSGPPLDKDFGLMDNARVVDQLMKDLGFGSGYIIQGGDIGSFVGRLLGVGFDACKAVHLNLCAMRAPPEGPSIESLSAAEKEGIARMEKFMTDGLAYAMEHSTRPSTIGHVLSSSPIALLAWIGEKYLQWVDKPLPSETILEMVSLYWLTESFPRAIHTYRETTPTASAPNGATMLQKELYIHKPFGFSFFPKDLCPVPRSWIATTGNLVFFRDHAEGGHFAALERPRELKTDLTAFVEQVWQK
# modifications: Aspergillus niger
# Tests used:
# [1] = tested on: epoxide hydrolase from Aspergillus niger; test: Effect of selective reagents and co-solvents on epoxide hydrolase activity (pNSO as substrate, diol formed by HPLC); format: biochemical; settings: for effect of co-solvent on the activity of epoxide hydrolase (opening of the epoxide): organic co-solvent for dissolving the substrate
# Protocol: (§1) Add 50 μL of the preparation containing the enzyme to 410 μL of 0.1 M sodium phosphate buffer pH 7.0 (buffer B) and pre-incubate the mixture at 35° C. for 2 min. Then add 40 μL of a 50 mM solution of racemic pNSO in DMF (final pNSO concentration: 4 mM).
# (§2) After 10 min of incubation, stop the reaction by adding 1 mL of dichloromethane. Stir the mixture vigorously so as to extract both the substrate and the diol produced. The quantity of diol formed is determined after separation on a column of silica by HPLC (high-pressure liquid chromatography) (Waters Associates, USA) as described previously (Nellaiah et al. 1996).
# One unit of epoxide hydrolase represents the quantity of enzyme that catalyses the formation of one μmol of diol per minute in the above conditions. After incubation with raw extracts, the quantity of diol formed increases linearly with time for at least 30 min, and the reaction rate is proportional to the concentration of the enzyme in the range of 0.01 to 1.2 units (Nellaiah et al., 1996).
# [2] = cited from earlier work
# [3] = Enzymatic activity of recombinant epoxide hydrolase and mutants (conversion of R enantiomer of para-nitrostyrene oxide to diol); format: biochemical, Aspergillus niger; settings: 4-nitro-styrene oxide hydrolysed
# Protocol: in the Ncol site that contains the starting codon of the pGEF+ vector in the context adapted to a ribosome binding site, upstream of the promoter of the RNA polymerase T7. The resulting plasmid is called pGEF II hereinafter. The PCR fragment AfIII/Eco RI of the EH of Aspergillus is ligated in the Ncol/Eco RI site of pGEF II to produce the pGEF Asp EH″ expression construction. The E. coli strain BL21 (DE 3) (Novagen) is transformed with pGEF Asp EH and put in the LB medium at 30° C. In late exponential phase, induction of expression of the recombinant protein is effected by adding isopropyl-β-thiogalactoside (100 μM). After two hours, the bacteria are collected by centrifugation, resuspended in 0.02 volumes of culture of the STE buffer (Tris-HCl, 10 mM, sodium chloride 100 mM, ethylenediamine tetraacetic acid 1 mM, pH 7.4) and stored at −70° C. Enzymatic activity is determined by converting the R enantiomer of para-nitrostyrene oxide to the corresponding diol. The reaction is carried out at a substrate concentration of 880 μM in 500 μL STE at 37° C. for 30 min, in the presence of 10 μL of acetonitrile which is used as solvent of para-nitrostyrene oxide. […]
# The conversion substrate is quantified by adding 400 μL of supernatant to 800 μL of water and reading the optical density at 277 nm, with the molar extinction coefficient of the product being 9.1×10^3 M^−1 cm^−1. […]
# [4] = Isoelectric point by electrofocusing; format: physicochemical, Aspergillus niger; settings: pH gradient 3 to 9, silver nitrate staining
# Protocol: SDS-PAGE electrophoresis is carried out on a plate with thickness of 1 mm containing a resolving gel (10% of acrylamide) and a concentrating gel (4% of acrylamide) at pH 8.8 in the presence of 0.1% of sodium dodecyl sulphate (SDS) (Laemmli, 1970). The samples are dissolved in a Tris-HCl buffer (62.5 mM, […]) containing 1% (w/v) of SDS, 10% (v/v) of glycerol and 2% (v/v) of β-mercaptoethanol, and are heated at 100° C. for 2 minutes. The proteins are stained with 0.1% (w/v) of Coomassie blue. Migrations on non-denaturing PAGE gels were effected in the same way except that no β-mercaptoethanol was added to the resolving buffer, and that the samples were not heated. Electrofocusing was carried out with a pH gradient of 3–9 by means of the Pharmacia LKB “Phastsystem” system and standard Pharmacia procedures. The proteins were stained with silver nitrate.
# [5] = Hydrolysis of pNSO by the purified EH: pH/temperature profile, enantioselectivity, regioselectivity; format: biochemical, Aspergillus niger; parameters: activation energy: unit not given here
# Protocol: as §1, §2
# The incubations with H2[^18O] are carried out in 1 mL flasks containing 180 μL of H2[^18O] buffer B, 20 μL of the purified epoxide hydrolase and 20 μL of substrate (50 mM in acetonitrile). After 1.5 h of incubation at 25° C. with magnetic stirring (500 rpm) the substrate that remains and the product formed are extracted with 2 mL of dichloromethane. The diol is purified by analytical chromatography on silica (eluent: diethylether). 2 μL of samples are analysed by gas chromatography/mass spectrometry (GC/MS). The diol that remains is converted to the corresponding acetonide by reaction with […] in the presence of p-toluene sulphonic acid. The acetonide is analysed by GC/MS as already described by Audier et al., 1968.
# Reaction in a total volume of 5 mL is carried out at 25° C., with a substrate with a concentration of 4.3 mM with DMSO (20 vol.%) as co-solvent in a 0.1 M sodium phosphate buffer pH 8.0.
# The reaction is started by adding 13 U/L of the purified enzyme. Samples are taken every 30 minutes for quantification of the concentrations of the substrate and of product by HPLC using a reversed-phase column (Nellaiah et al., 1996) and for quantification of the enantiomeric excess of the epoxide and of the diol by gas-phase chromatography (Nellaiah et al., 1996).
# [6] = purified EH of Aspergillus niger, pNSO substrate
molecule,measurement,setting,value
O=C([O-])c1cc[c]([Hg][OH])cc1 [4-hydroxy-mercuribenzoate],effect of selective reagent on the activity of the enzyme,[1]; [6],strong inactivation
CN(C)C=O [DMF],effect of co-solvent on the activity of epoxide hydrolase (opening of the epoxide),[1]; pNSO substrate,strongest activities
O=C(O)CN(CCN(CC(=O)O)CC(=O)O)CC(=O)O [EDTA],effect of selective reagent on the activity of the enzyme,[1],no effect
[Cl][Hg][Cl] [HgCl2],effect of selective reagent on the activity of the enzyme,[1]; [6],strong inactivation
C1CCOC1 [THF],effect of co-solvent on the activity of epoxide hydrolase (opening of the epoxide),[1]; pNSO substrate,low activity
CC(C)=O [acetone],effect of co-solvent on the activity of epoxide hydrolase (opening of the epoxide),[1]; pNSO substrate,strongest activities
N[C@@H](CS)C(=O)O [cysteine],effect of selective reagent on the activity of the enzyme,[1]; [6],positive effect
OO [hydrogen peroxide],effect of selective reagent on the activity of the enzyme,[1]; [6],strongly inhibit
NC(=O)CI [iodoacetamide],effect of selective reagent on the activity of the enzyme,[1]; [6],strong inactivation
O=C(OO)c1cccc(Cl)c1 [meta-chloroperbenzoic acid],effect of selective reagent on the activity of the enzyme,[1]; [6],strongly inhibit
OCCS [β-mercaptoethanol],effect of selective reagent on the activity of the enzyme,[1]; [6],positive effect
phenylmethane sulphonyl chloride [PMSF],effect of selective reagent on the activity of the enzyme,[1]; [6],no effect
B1,conversion number increased by a factor,[2]; on replacing Glu^404 of the charge relay system with aspartic acid,30
same,specific activity,[2]; styrene oxide and benzo[α]pyrene oxide,about 500 nmol converted per minute and milligram of pure enzyme
B2,specific activity,[3],100 μmol per minute and milligram
same,isoelectric point,[4],4.5
same,pH of maximum activity,[5],7 pH
same,temperature of maximum activity,[5],40 °C
same,regioselectivity of the reaction,"[5]; for the 2 carbon, pNSO",97%
same,activation energy,[5]; from 2 to 40° C.,27
same,ratio of the specific constant (kcat/Km): initial rate of hydrolysis of (R) enantiomer versus (S) enantiomer,[5]; starting from racemic pNSO,55 times
